# DBAASP
# Several values for one entry are separate records, joined by “and”; a condition that tells them apart may be missing. Equal entries are not always repeated.
# Tests used:
# Test in all cases: ≥ marks a high value that may be exact or a test limit, other limits are often not marked, values filed in µg/mL are converted to µM
# [1] = tested on: Serratia marcescens Db11
# [2] = tested on: Staphylococcus aureus
# [3] = tested on: Aerococcus viridans
# [4] = tested on: Bacillus thuringiensis
# [5] = tested on: Escherichia coli K-12
# [6] = tested on: Staphylococcus aureus USA 300
# [7] = tested on: Escherichia coli 1106
# [8] = tested on: Micrococcus luteus
# [9] = tested on: Pectobacterium carotovorum subsp. carotovorum
# [10] = tested on: Burkholderia cepacia
# [11] = tested on: Pseudomonas aeruginosa ATCC 82118
# [12] = tested on: Alcaligenes faecalis
# [13] = tested on: Klebsiella pneumoniae
# [14] = tested on: Salmonella typhimurium
# [15] = tested on: Bacillus megaterium
# [16] = tested on: Xanthomonas campestris pv. oryzae
# [17] = tested on: Enterococcus faecalis
# [18] = tested on: Bacillus subtilis QB935
# [19] = tested on: Escherichia coli D31
# [20] = tested on: Enterobacter cloacae beta-12
# [21] = tested on: Escherichia coli D22
# [22] = tested on: Neurospora crassa CBS 327-54
# [23] = tested on: Fusarium oxysporum MUCL 909
# [24] = tested on: Alternaria brassicicola MUCL 20297
# [25] = tested on: Fusarium culmorum MUCL 30162
# [26] = tested on: Fusarium haematococcum 160.2.2
# [27] = tested on: Trichophyton mentagrophytes
# [28] = tested on: Aspergillus fumigatus
# [29] = tested on: Candida albicans ATCC 36232
# [30] = tested on: Staphylococcus aureus ATCC 6538
# [31] = tested on: Micrococcus luteus ATCC 9341
# [32] = tested on: Pseudomonas aeruginosa ATCC 9027
# [33] = tested on: Escherichia coli ATCC 2592
# [34] = tested on: Candida albicans ATCC 3623
# [35] = tested on: Staphylococcus epidermidis AB208187
# [36] = tested on: Bacillus subtilis AB91021
# [37] = tested on: Staphylococcus aureus P1389
# [38] = tested on: Staphylococcus aureus AB208193
# [39] = tested on: Staphylococcus aureus P1381
# [40] = tested on: Staphylococcus aureus P1374
# [41] = tested on: Escherichia coli ATCC 25922
# [42] = tested on: Escherichia coli AB94012
# [43] = tested on: Micrococcus luteus AB93113
# [44] = tested on: Bacillus thuringiensis AB92037
# [45] = tested on: Staphylococcus epidermidis AB208188
# [46] = tested on: Staphylococcus aureus AB94004
# [47] = tested on: Staphylococcus aureus ATCC 25923
smiles,measurement,setting,value
CSCC[C@H](NC(=O)[C@H](CC(N)=O)NC(=O)[C@@H]1CCCN1C(=O)[C@@H]1CCCN1C(=O)[C@H](CCCNC(=N)N)NC(=O)[C@@H]1CCCN1C(=O)[C@H](CCCNC(=N)N)NC(=O)[C@@H]1CCCN1C(=O)[C@H](CCCNC(=N)N)NC(=O)[C@H](Cc1ccc(O)cc1)NC(=O)[C@H](CC(=O)O)NC(=O)[C@@H]1CCCN1C(=O)[C@H](CCCCN)NC(=O)[C@H](CC(=O)O)NC(=O)[C@@H](N)C(C)C)C(=O)O [VDKPDYRPRPRPPNM],MIC,[1],≥ 200 µM
same,MIC,[2],> 200 µM
same,MIC,[3],≥ 200 µM
same,MIC,[4],≥ 200 µM
same,MIC,[5],≥ 100 µM
same,MIC,[6],≥ 100 µM
same,MIC,[7],≥ 141 µM
same,MIC,[8],≥ 200 µM
same,MIC,[9],≥ 200 µM
same,MIC,[10],≥ 100 µM
same,MIC,[11],≥ 200 µM
same,MIC,[12],≥ 70.7 µM
same,MIC,[13],> 200 µM
same,MIC,[14],≥ 70.7 µM
same,MIC,[15],≥ 200 µM
same,MIC,[16],≥ 141 µM
same,MIC,[17],≥ 200 µM
same,MIC,[18],≥ 200 µM
same,MIC,[19],≥ 141 µM
same,MIC,[20],≥ 141 µM
same,MIC,[21],≥ 70.7 µM
CC[C@H](C)[C@H](NC(=O)[C@H](CO)NC(=O)[C@H](CC(C)C)NC(=O)[C@@H](NC(=O)[C@@H](N)CCCN=C(N)N)[C@@H](C)CC)C(=O)N[C@@H](CC(C)C)C(=O)N[C@@H](CCCN=C(N)N)C(=O)N[C@@H](Cc1cnc[nH]1)C(=O)N[C@@H](CCC(N)=O)C(=O)N[C@@H](CC(N)=O)C(=O)N[C@@H](CC(C)C)C(=O)N[C@@H](CC(C)C)C(=O)N[C@@H](CCCCN)C(=O)N[C@@H](CCC(=O)O)C(=O)N[C@@H](CC(C)C)C(=O)N[C@@H](CCC(N)=O)C(=O)N[C@@H](CC(=O)O)C(=O)N[C@@H](CC(C)C)C(=O)N[C@@H](C)C(=O)N[C@@H](CC(C)C)C(=O)N[C@@H](CCC(N)=O)C(=O)NCC(=O)N[C@@H](C)C(=O)N[C@@H](CCCCN)C(=O)O [RILSILRHQNLLKELQDLALQGAK],MIC,[22],5 µM
same,MIC,[23],30 µM
same,MIC,[24],10 µM
same,MIC,[25],10 µM
same,MIC,[26],7 µM
same,MIC,[27],30 µM
same,MIC,[28],30 µM
CC(C)[C@H](NC(=O)[C@H](CCCCN)NC(=O)[C@H](Cc1ccccc1)NC(=O)[C@@H](NC(=O)[C@@H](NC(=O)[C@H](CCCCN)NC(=O)[C@H](CCCCN)NC(=O)[C@@H](N)CCCCN)C(C)C)C(C)C)C(=O)N[C@@H](CCCCN)C(=O)N[C@@H](Cc1ccccc1)C(=O)N[C@@H](CCCCN)C(N)=O [KKKVVFKVKFK],MIC,[29],9.07 µM and 3.21 µM and 4.53 µM
same,MIC,[30],2.27 µM
same,MIC,[31],2.27 µM
CC(C)C[C@H](NC(=O)[C@H](CC(C)C)NC(=O)[C@H](CCCCN)NC(=O)[C@H](CC(C)C)NC(=O)[C@H](CC(C)C)NC(=O)[C@H](CC(C)C)NC(=O)[C@H](CCCCN)NC(=O)[C@H](CC(C)C)NC(=O)[C@H](CC(C)C)NC(=O)[C@H](CC(C)C)NC(=O)[C@@H](N)CCCCN)C(=O)N[C@@H](CCCCN)C(N)=O [KLLLKLLLKLLK],MIC,[32],8.7 µM
same,MIC,[33],11.6 µM
same,MIC,[30],11.6 µM
same,MIC,[34],4.39 µM
same,MIC,[31],4.39 µM
CC[C@H](C)[C@H](NC(=O)[C@H](CCCCN)NC(=O)[C@@H](NC(=O)[C@H](C)NC(=O)[C@H](CC(C)C)NC(=O)[C@H](CCCCN)NC(=O)[C@H](Cc1ccccc1)NC(=O)[C@H](CC(C)C)NC(=O)[C@H](Cc1cnc[nH]1)NC(=O)CNC(=O)[C@H](Cc1ccccc1)NC(=O)[C@@H](N)Cc1ccccc1)[C@@H](C)O)C(=O)N[C@H](C(=O)N1CCC[C@H]1C(=O)N[C@@H](CO)C(=O)N[C@@H](CC(C)C)C(=O)N[C@@H](Cc1ccccc1)C(=O)N[C@@H](CCC(N)=O)C(=O)O)[C@@H](C)CC [FFGHLFKLATKIIPSLFQ],MIC,[35],3 µM
same,MIC,[36],3 µM
same,MIC,[32],11.9 µM
same,MIC,[37],3 µM
same,MIC,[38],3 µM
same,MIC,[39],1.5 µM
same,MIC,[40],3 µM
same,MIC,[41],11.9 µM
same,MIC,[42],23.7 µM
same,MIC,[43],≥ 47.5 µM
same,MIC,[44],3 µM
same,MIC,[45],1.5 µM
same,MIC,[30],1.5 µM
same,MIC,[46],1.5 µM
same,MIC,[47],3 µM
